The assay addresses T1, human AR (Homo sapiens, UniProt P10275).
T1 construct: expressed in transfected cells; host or cells: COS-1 cells
T1 sequence (P10275 1-920): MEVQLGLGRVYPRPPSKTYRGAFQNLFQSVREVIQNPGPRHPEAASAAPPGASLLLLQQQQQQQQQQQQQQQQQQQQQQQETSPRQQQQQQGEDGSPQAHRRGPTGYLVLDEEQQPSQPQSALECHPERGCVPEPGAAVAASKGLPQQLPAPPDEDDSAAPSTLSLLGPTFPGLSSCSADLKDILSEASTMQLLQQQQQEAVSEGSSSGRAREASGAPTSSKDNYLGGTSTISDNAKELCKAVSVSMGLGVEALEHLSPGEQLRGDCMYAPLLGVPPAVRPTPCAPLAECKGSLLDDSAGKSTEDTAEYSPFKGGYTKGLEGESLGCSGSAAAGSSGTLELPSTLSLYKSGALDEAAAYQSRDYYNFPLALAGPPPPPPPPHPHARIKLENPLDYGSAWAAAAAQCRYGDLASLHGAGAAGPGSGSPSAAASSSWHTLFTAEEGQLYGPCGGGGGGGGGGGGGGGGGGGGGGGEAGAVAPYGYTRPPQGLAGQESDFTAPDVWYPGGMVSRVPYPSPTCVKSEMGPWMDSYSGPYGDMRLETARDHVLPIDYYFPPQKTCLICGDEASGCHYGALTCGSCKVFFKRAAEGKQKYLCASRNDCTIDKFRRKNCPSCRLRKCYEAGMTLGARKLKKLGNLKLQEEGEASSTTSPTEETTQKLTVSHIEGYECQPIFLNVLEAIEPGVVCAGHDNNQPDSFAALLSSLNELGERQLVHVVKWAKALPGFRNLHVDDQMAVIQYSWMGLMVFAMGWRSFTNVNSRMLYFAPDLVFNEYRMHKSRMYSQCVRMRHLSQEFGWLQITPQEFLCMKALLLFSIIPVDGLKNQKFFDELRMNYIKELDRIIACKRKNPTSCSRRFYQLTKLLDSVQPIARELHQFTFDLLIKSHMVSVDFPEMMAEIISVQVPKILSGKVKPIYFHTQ
Put plainly: IR Binding Assay: whole cell competitive binding of test compounds against 3H-DHT in COS-1 cells transfected with pRShAR. An outline of the steps:
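COS-1 cells transfected with pRShAR plus β-Gal reporter, serum-starved 24 h, then exposed to 1 nM ³H-DHT with compounds at 10^−10 to 10^−6 M for 3 h at 37 °C. Bound ³H-DHT counted in lysates, normalized to β-Gal. IC50 from log-logit plot; Ki via Cheng-Prusoff using Kd from Scatchard saturation analysis.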

Each structure is given as a SMILES string.

One may read the Ki as a dissociation constant, usually derived from enzyme kinetics or from competition with a known ligand. Low readings indicate a stronger hold on the target, high ones a looser hold on the target.

In the case of `Cc1c(-c2ccccn2)n(CC(F)(F)C(F)(F)F)c2ccc3[nH]c(=O)cc(Cl)c3c12` [Compound 265, 9-Chloro-1-methyl-3-(2,2,3,3,3-pentafluoropropyl)-2-(2-pyridyl)-3,6-dihydro-pyrrolo[3,2-f]quinolin-7-one], the Ki was less than 5 nM. On to `Cc1c(-c2ncco2)n(CC(F)(F)C(F)(F)F)c2ccc3[nH]c(=O)cc(Cl)c3c12` [Compound 266, 9-Chloro-1-methyl-2-(oxazol-2-yl)-3-(2,2,3,3,3-pentafluoropropyl)-3,6-dihydro-pyrrolo[3,2-f]quinolin-7-one], for which the Ki is less than 5 nM.

As to `Cc1ccc(-c2c(C)c3c4c(Cl)cc(=O)[nH]c4ccc3n2CC(F)(F)C(F)(F)F)o1` [Compound 267, 9-Chloro-1-methyl-2-(5-methylfuran-2-yl)-3-(2,2,3,3,3-pentafluoropropyl)-3,6-dihydro-pyrrolo[3,2-f]quinolin-7-one], the Ki fell in the range of 5 to 10 nM. The compound `Cc1ccc(-c2c(C)c3c4c(Cl)cc(=O)[nH]c4ccc3n2CC(F)(F)C(F)(F)F)s1` [Compound 268, 9-Chloro-1-methyl-2-(5-methylthiophen-2-yl)-3-(2,2,3,3,3-pentafluoropropyl)-3,6-dihydro-pyrrolo[3,2-f]quinolin-7-one] displayed a Ki of less than 5 nM. Under `Cc1c(CCCCl)c2c3c(Cl)cc(=O)[nH]c3ccc2n1CC(F)(F)C(F)(F)F` [Compound 269, 9-Chloro-1-(3-chloropropyl)-2-methyl-3-(2,2,3,3,3-pentafluoropropyl)-3,6-dihydro-pyrrolo[3,2-f]quinolin-7-one] stands more than 10 nM. To `Cc1c(CCCI)c2c3c(Cl)cc(=O)[nH]c3ccc2n1CC(F)(F)C(F)(F)F` [Compound 270, 9-Chloro-1-(3-iodopropyl)-2-methyl-3-(2,2,3,3,3-pentafluoropropyl)-3,6-dihydro-pyrrolo[3,2-f]quinolin-7-one] belongs more than 10 nM; to `Cc1c(-c2ccccc2)n(C[C@H](O)C(F)(F)F)c2ccc3[nH]c(=O)cc(Cl)c3c12` [Compound 271, (S)-9-Chloro-1-methyl-2-phenyl-3-(3,3,3-trifluoro-2-hydroxy-propyl)-3,6-dihydro-pyrrolo[3,2-f]quinolin-7-one], less than 5 nM; to `Cc1c(-c2cccs2)n(C[C@H](O)C(F)(F)F)c2ccc3[nH]c(=O)cc(Cl)c3c12` [Compound 272, (S)-9-Chloro-1-methyl-2-thiophen-2-yl-3-(3,3,3-trifluoro-2-hydroxy-propyl)-3,6-dihydro-pyrrolo[3,2-f]quinolin-7-one], less than 5 nM. `Cc1c(-c2ccncc2)n(C[C@H](O)C(F)(F)F)c2ccc3[nH]c(=O)cc(Cl)c3c12` [Compound 273, (S)-9-Chloro-1-methyl-2-(4-pyridyl)-3-(3,3,3-trifluoro-2-hydroxy-propyl)-3,6-dihydro-pyrrolo[3,2-f]quinolin-7-one] registered an inhibition constant (Ki) of more than 10 nM. For `Cc1c(-c2cccnc2)n(C[C@H](O)C(F)(F)F)c2ccc3[nH]c(=O)cc(Cl)c3c12` [Compound 274, (S)-9-Chloro-1-methyl-2-(3-pyridyl)-3-(3,3,3-trifluoro-2-hydroxy-propyl)-3,6-dihydro-pyrrolo[3,2-f]quinolin-7-one], the Ki is more than 10 nM. `Cc1c(-c2ccccn2)n(C[C@H](O)C(F)(F)F)c2ccc3[nH]c(=O)cc(Cl)c3c12` [Compound 275, (S)-9-Chloro-1-methyl-2-(2-pyridyl)-3-(3,3,3-trifluoro-2-hydroxy-propyl)-3,6-dihydro-pyrrolo[3,2-f]quinolin-7-one] yielded a Ki of 5 to 10 nM. Under `Cc1c(-c2nccs2)n(C[C@H](O)C(F)(F)F)c2ccc3[nH]c(=O)cc(Cl)c3c12` [Compound 276, (S)-9-Chloro-1-methyl-2-(1,3-thiazol-2-yl)-3-(3,3,3-trifluoro-2-hydroxy-propyl)-3,6-dihydro-pyrrolo[3,2-f]quinolin-7-one] stands more than 10 nM; under `Cc1c(-c2ccco2)n(C[C@H](O)C(F)(F)F)c2ccc3[nH]c(=O)cc(Cl)c3c12` [Compound 277, (S)-9-Chloro-2-(2-furyl)-1-methyl-3-(3,3,3-trifluoro-2-hydroxy-propyl)-3,6-dihydro-pyrrolo[3,2-f]quinolin-7-one], less than 5 nM; under `Cc1c(C)n(C[C@@H](O)C(F)(F)F)c2ccc3[nH]c(=O)cc(Cl)c3c12` [Compound 278, (R)-9-Chloro-1,2-dimethyl-3-(3,3,3-trifluoro-2-hydroxy-propyl)-3,6-dihydro-pyrrolo[3,2-f]-quinolin-7-one], less than 5 nM. Under `Cc1c(-c2ccccc2)n(C[C@@H](O)C(F)(F)F)c2ccc3[nH]c(=O)cc(Cl)c3c12` [Compound 280, 9-Chloro-1-methyl-2-phenyl-3-(3,3,3-trifluoro-2-hydroxy-propyl)-3,6-dihydro-pyrrolo[3,2-f]quinolin-7-one] stands more than 10 nM. The compound `CCc1c(C)c2c3c(Cl)cc(=O)[nH]c3ccc2n1C[C@@H](O)C(F)(F)F` [Compound 281, (R)-9-Chloro-2-ethyl-1-methyl-3-(3,3,3-trifluoro-2-hydroxy-propyl)-3,6-dihydro-pyrrolo[3,2-f]quinolin-7-one] showed a Ki of less than 5 nM. In the case of `Cc1c(-c2cccs2)n(C[C@@H](O)C(F)(F)F)c2ccc3[nH]c(=O)cc(Cl)c3c12` [Compound 282, (R)-9-Chloro-1-methyl-2-thiophen-2-yl-3-(3,3,3-trifluoro-2-hydroxy-propyl)-3,6-dihydro-pyrrolo[3,2-f]quinolin-7-one], the Ki is less than 5 nM. Consider `Cc1c(-c2ccncc2)n(C[C@@H](O)C(F)(F)F)c2ccc3[nH]c(=O)cc(Cl)c3c12` [Compound 283, (R)-9-Chloro-1-methyl-2-(4-pyridyl)-3-(3,3,3-trifluoro-2-hydroxy-propyl)-3,6-dihydro-pyrrolo[3,2-f]quinolin-7-one], for which the Ki was in the range of 5 to 10 nM.

As for `Cc1ccc(-c2c(C)c3c4c(Cl)cc(=O)[nH]c4ccc3n2C[C@@H](O)C(F)(F)F)o1` [Compound 284, (R)-9-Chloro-1-methyl-2-(5-methylfuran-2-yl)-3-(3,3,3-trifluoro-2-hydroxy-propyl)-3,6-dihydro-pyrrolo[3,2-f]quinolin-7-one], the Ki is less than 5 nM.

`Cc1ccc(-c2c(C)c3c4c(Cl)cc(=O)[nH]c4ccc3n2C[C@@H](O)C(F)(F)F)s1` [Compound 285, (R)-9-Chloro-1-methyl-2-(5-methylthiophen-2-yl)-3-(3,3,3-trifluoro-2-hydroxy-propyl)-3,6-dihydro-pyrrolo[3,2-f]quinolin-7-one]: the Ki is less than 5 nM.

The compound `CCc1c(C)c2c3c(C(F)(F)F)cc(=O)[nH]c3ccc2n1CCCO` [Compound 286] yielded a Ki of less than 5 nM.

With `Cc1c(C)n(CCCO)c2ccc3[nH]c(=O)cc(Cl)c3c12` [Compound 287, 9-Chloro-1,2-dimethyl-3-(3-hydroxypropyl)-3,6-dihydro-pyrrolo[3,2-f]quinolin-7-one], the Ki is more than 10 nM. The compound `Cc1c(C)n(CCCBr)c2ccc3[nH]c(=O)cc(C(F)(F)F)c3c12` [Compound 288, 3-(3-Bromopropyl)-1,2-dimethyl-9-trifluoromethyl-3,6-dihydro-pyrrolo[3,2-f]-quinolin-7-one] displayed a Ki of less than 5 nM.

The compound `Cc1c(C)n(CCCNCCO)c2ccc3[nH]c(=O)cc(C(F)(F)F)c3c12` [Compound 289, 1,2-Dimethyl-3-[3-(2-hydroxy-ethylamino)-propyl]-9-trifluoromethyl-3,6-dihydro-pyrrolo[3,2-f]quinolin-7-one] came in with a Ki of more than 10 nM.

Take `Cc1c(C)n(CC(O)CO)c2ccc3[nH]c(=O)cc(Cl)c3c12` (stereo not shown) [Compound 290, 9-Chloro-3-(2,3-dihydroxypropyl)-1,2-dimethyl-3,6-dihydro-pyrrolo[3,2-f]-quinolin-7-one]: the inhibition constant (Ki) is more than 10 nM. `Cc1c(C)n(C[C@H](O)CO)c2ccc3[nH]c(=O)cc(Cl)c3c12` [Compound 291, (S)-9-Chloro-3-(2,3-dihydroxypropyl)-1,2-dimethyl-3,6-dihydro-pyrrolo[3,2-f]-quinolin-7-one] had a Ki of more than 10 nM. In the case of `Cc1c(C)n(C[C@@H](O)CO)c2ccc3[nH]c(=O)cc(Cl)c3c12` [Compound 292, (R)-9-Chloro-3-(2,3-dihydroxypropyl)-1,2-dimethyl-3,6-dihydro-pyrrolo[3,2-f]-quinolin-7-one], the Ki is more than 10 nM. To `Cc1c(C)n(CC(O)CO)c2ccc3[nH]c(=O)cc(C(F)(F)F)c3c12` (stereo not shown) [Compound 293, 3-(2,3-dihydroxypropyl)-1,2-dimethyl-9-trifluoromethyl-3,6-dihydro-pyrrolo[3,2-f]-quinolin-7-one] belongs more than 10 nM.

(Values after patent US8580811B2 (Ligand Pharmaceuticals Incorporated, priority 2005, dated 2013).)
